Series [1] deals with T1, RAC-alpha serine/threonine-protein kinase (Homo sapiens, UniProt P31749). The series can be described thus: Inhibition of Akt1 at 5.33 uM.
Series [2] in a line: Cmax in mouse at 10 mg/kg. The settings on record: in vivo. Set-up: dose 10 mg/kg. It counts as ADME, organism-based.
Series [3] in a line: Oral bioavailability in mouse at 10 mg/kg. It counts as ADME, organism-based. The settings on record: in vivo.
A short description of series [4]: Half life in mouse at 10 mg/kg. On the set-up: dose 10 mg/kg. The conditions noted are these: in vivo. It counts as ADME, organism-based.
A short description of series [5]: Volume of distribution in mouse at 10 mg/kg. The settings on record: in vivo, read-out: Vdss. On the set-up: dose 10 mg/kg. It counts as ADME, organism-based.
A short description of series [6]: Plasma clearance in mouse at 10 mg/kg. In kind it is ADME, organism-based. Set-up: dose 10 mg/kg.
Series [7] concerns the target T1, RAC-alpha serine/threonine-protein kinase. The experiment in a line: Inhibition of Akt1 at 0.99 uM.
A short description of series [8]: Half life in rat at 5 mg/kg. It counts as ADME, organism-based. Set-up: dose 5 mg/kg. The settings on record: in vivo.
Series [9] in a line: Volume of distribution in rat at 5 mg/kg. It counts as ADME, organism-based. Set-up: dose 5 mg/kg. The settings on record: in vivo, read-out: Vdss.
The nature of series [10]: Plasma clearance in rat at 5 mg/kg. In kind it is ADME, organism-based. On the set-up: dose 5 mg/kg.
A short description of series [11]: Cmax in rat at 5 mg/kg. In kind it is ADME, organism-based. On the set-up: dose 5 mg/kg. The settings on record: in vivo.
Series [12] can be described thus: Oral bioavailability in rat at 5 mg/kg. It counts as ADME, organism-based. The conditions noted are these: in vivo.
Series [13] has as its target T1, RAC-alpha serine/threonine-protein kinase. The experiment in a line: Inhibition of Akt1 at 50 uM.
Series [14] can be described thus: Half life in mouse at 30 mg/kg. Set-up: dose 30 mg/kg. The conditions noted are these: in vivo. In kind it is ADME, organism-based.
A short description of series [15]: Volume of distribution in mouse at 30 mg/kg. It counts as ADME, organism-based. Set-up: dose 30 mg/kg. The conditions noted are these: in vivo, read-out: Vdss.
Series [16] in a line: Plasma clearance in mouse at 30 mg/kg. In kind it is ADME, organism-based. Set-up: dose 30 mg/kg.
A short description of series [17]: Cmax in mouse at 30 mg/kg. It counts as ADME, organism-based. Set-up: dose 30 mg/kg. The settings on record: in vivo.
The nature of series [18]: Oral bioavailability in mouse at 30 mg/kg. In kind it is ADME, organism-based. The conditions noted are these: in vivo.
The nature of series [19]: Half life in dog at 2.5 mg/kg. In kind it is ADME, organism-based, Canis lupus familiaris. On the set-up: dose 2.5 mg/kg. The settings on record: in vivo.
A short description of series [20]: Volume of distribution in dog at 2.5 mg/kg. On the set-up: dose 2.5 mg/kg. It counts as ADME, organism-based, Canis lupus familiaris. The conditions noted are these: in vivo, read-out: Vdss.
The nature of series [21]: Plasma clearance in dog at 2.5 mg/kg. In kind it is ADME, organism-based, Canis lupus familiaris. Set-up: dose 2.5 mg/kg.
Series [22] in a line: Cmax in dog at 2.5 mg/kg. In kind it is ADME, organism-based, Canis lupus familiaris. The conditions noted are these: in vivo. On the set-up: dose 2.5 mg/kg.
Series [23] in a line: Oral bioavailability in dog at 2.5 mg/kg. It counts as ADME, organism-based, Canis lupus familiaris. The settings on record: in vivo.
The nature of series [24]: Half life in monkey at 2.5 mg/kg. It counts as ADME, organism-based, Macaca mulatta. The settings on record: rhesus monkey, in vivo. Set-up: dose 2.5 mg/kg.
Series [25] is described as follows: Volume of distribution in monkey at 2.5 mg/kg. It counts as ADME, organism-based, Macaca mulatta. Set-up: dose 2.5 mg/kg. The conditions noted are these: rhesus monkey, in vivo, read-out: Vdss.
The nature of series [26]: Plasma clearance in monkey at 2.5 mg/kg. The settings on record: rhesus monkey. In kind it is ADME, organism-based, Macaca mulatta. On the set-up: dose 2.5 mg/kg.
A short description of series [27]: Cmax in monkey at 2.5 mg/kg. The settings on record: rhesus monkey, in vivo. On the set-up: dose 2.5 mg/kg. It counts as ADME, organism-based, Macaca mulatta.
Series [28] is described as follows: Oral bioavailability in monkey at 2.5 mg/kg. In kind it is ADME, organism-based, Macaca mulatta. The conditions noted are these: rhesus monkey, in vivo.
The target of series [29] is T1, RAC-alpha serine/threonine-protein kinase. The series can be described thus: Inhibition of Akt1 using 10 uM ATP.
Another series deals with MIA PaCa-2. The series can be described thus: Antiproliferative activity against MiaPaCa-2 cells by MTT assay. In kind it is functional, cell-based. The settings on record: Homo sapiens. For orientation: Tetrazolium assays rely on reduction of a dye to a coloured formazan, in cell work by metabolically active cells.

Structures are written as SMILES.

T1 sequence (P31749 whole entry): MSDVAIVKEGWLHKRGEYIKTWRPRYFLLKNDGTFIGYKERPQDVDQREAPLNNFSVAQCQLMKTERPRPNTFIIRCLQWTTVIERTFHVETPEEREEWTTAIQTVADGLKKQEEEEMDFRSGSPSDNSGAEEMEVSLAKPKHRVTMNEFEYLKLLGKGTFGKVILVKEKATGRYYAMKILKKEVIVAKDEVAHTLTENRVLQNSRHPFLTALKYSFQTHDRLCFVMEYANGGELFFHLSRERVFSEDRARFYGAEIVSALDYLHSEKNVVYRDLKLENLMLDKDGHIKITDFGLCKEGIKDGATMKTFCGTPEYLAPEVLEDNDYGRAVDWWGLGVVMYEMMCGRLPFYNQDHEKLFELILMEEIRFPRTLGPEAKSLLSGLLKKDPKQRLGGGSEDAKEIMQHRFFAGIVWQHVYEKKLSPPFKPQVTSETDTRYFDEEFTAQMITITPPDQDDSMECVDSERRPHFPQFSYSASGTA

What is called inhibition is the relative decrease from the control value, in per cent. With `N[C@H](COc1cncc(/C=C/c2ccncc2)c1)C(=O)Nc1ccc2ccccc2c1`, in [1], the inhibition was determined as 4%.
For orientation: Cmax means the highest concentration seen after dosing. Broadly, the bioavailability is dose-corrected exposure relative to a reference, in per cent. The term half-life denotes how long it takes for the measured level to halve. Broadly, the clearance is a measure of how efficiently the substance is removed, as volume per time. `N[C@H](CCc1cnc(Cl)c(/C=C/c2ccncc2)c1)Cc1c[nH]c2ccccc12` registered a peak concentration (Cmax) in [2] of 90 ng/mL. The molecule also registered a bioavailability in [3] of less than 10%. Also, the half-life in series [4] is 12 min. Further, the Vd in series [5] stood at 4.9 L/kg. In [6], this molecule had a clearance of 288 mL/min/kg.
`N[C@@H](Cc1c[nH]cn1)C(=O)Nc1cncc(/C=C/c2ccncc2)c1` displayed an inhibition in [7] of 73%.
Molecule `N[C@H](COc1cncc(/C=C/c2ccncc2)c1)Cc1csc2ccccc12` showed a half-life in [8] of 150 min. For the same molecule, in series [9], the Vd was found to be 3.6 L/kg. The same molecule showed a clearance in series [10] of 16.7 mL/min/kg. The Cmax in [11] was 620 ng/mL. The molecule further returned a bioavailability in series [12] of 43%.
Turning to `N[C@H](COc1cncc(/C=C/c2ccncc2)c1)C(=O)O`, the inhibition in series [1] is 11%.
Consider `N[C@H](CNc1cnc(Cl)c(/C=C/c2ccncc2)c1)Cc1c[nH]c2ccccc12`, for which the Cmax in series [2] is less than 20 ng/mL. In [3], the bioavailability was 0%. The half-life in series [4] is 36 min. The Vd in [5] turned out to be 9.5 L/kg. The molecule also showed a clearance in series [6] of 190 mL/min/kg.
Turning to `N[C@H](COc1cnccc1/C=C/c1ccncc1)Cc1ccccc1`, the inhibition in [13] was determined as 29%.
In turn, `N[C@H](COc1cncc(/C=C/c2ccccc2)c1)Cc1c[nH]c2ccccc12` gave an inhibition in series [1] of 17%.
As for `N[C@H](COc1cnc(Cl)c(/C=C/c2ccncc2)c1)Cc1c[nH]c2ccccc12`, the half-life in [14] was 48 min; in series [19], 324 min; in series [24] it was 180 min; in series [8], 186 min. The Vd in series [15] was found to be 4.8 L/kg; in series [20] it was 11.1 L/kg; in series [25], 4.2 L/kg; in series [9], 9.9 L/kg. Besides, the clearance in series [16] was 68.3 mL/min/kg; in [21], 23.3 mL/min/kg; in series [26] it was 16.2 mL/min/kg; in series [10] it was 36.7 mL/min/kg. The peak concentration (Cmax) was 940 ng/mL in [17], 120 ng/mL in [22], 60 ng/mL in series [27] and 60 ng/mL in series [11]. Besides, the bioavailability came out at 11% in [18], 45% in [23], 12% in series [28] and 17% in series [12].
As a reminder, the IC50 is the midpoint of a concentration-inhibition curve. Turning to `C(=C\c1cncc(OCCCc2c[nH]c3ccccc23)c1)/c1ccncc1`, the concentration for half-maximal inhibition (IC50) in series [29] was greater than 50 µM.
`N[C@H](COc1cc(/C=C/c2ccncc2)ccn1)Cc1c[nH]c2ccccc12` came in with an inhibition in series [1] of 16%.
`N[C@H](COc1cncc(/C=C/c2ccncc2)c1)Cc1c[nH]c2ccccc12`: the half-life was 48 min in [14], 192 min in series [19], 222 min in [24] and 186 min in series [8]. The Vd in series [15] was 6.5 L/kg; in series [20], 12.8 L/kg; in series [25] it was 9.1 L/kg; in series [9], 5.2 L/kg. In addition, the clearance in [16] was 95 mL/min/kg; in series [21] it was 41.7 mL/min/kg; in series [26] it was 26.7 mL/min/kg; in series [10], 20 mL/min/kg. Also, the Cmax turned out to be 2780 ng/mL in series [17], 100 ng/mL in series [22], 40 ng/mL in [27] and 300 ng/mL in series [11]. The bioavailability amounted to 39% in series [18], 52% in series [23], 12% in series [28] and 21% in series [12]. Also, in the series on MIA PaCa-2, half-maximal inhibition (IC50) required 12 µM.
In [1], `N[C@H](COc1cccc(/C=C/c2ccncc2)c1)Cc1c[nH]c2ccccc12` registered an inhibition of 35%.
